From ChEMBL document CHEMBL3525956, “Species independence in brain tissue binding using brain homogenates” (Drug Metab Dispos, 2011)

What was measured:
[1] = Fraction unbound in Sprague-Dawley rat brain homogenates at 1 uM after 6 hrs by equilibrium dialysis method; details: brain homogenate
[2] = Fraction unbound in Beagle dog brain homogenates at 1 uM after 6 hrs by equilibrium dialysis method; details: brain homogenate
[3] = Fraction unbound in CD-1 mouse brain homogenates at 1 uM after 6 hrs by equilibrium dialysis method; details: brain homogenate
[4] = Fraction unbound in human occipital cortex at 1 uM after 6 hrs by equilibrium dialysis method
[5] = Fraction unbound in Wistar Han rat brain homogenates at 1 uM after 6 hrs by equilibrium dialysis method; details: brain homogenate
[6] = Fraction unbound in Hartley guinea pig brain homogenates at 1 uM after 6 hrs by equilibrium dialysis method; details: brain homogenate
[7] = Fraction unbound in cynomolgus monkey brain homogenates at 1 uM after 6 hrs by equilibrium dialysis method; details: brain homogenate

Row | SMILES | fraction unbound at 6 h, 1 µM [1] | fraction unbound at 6 h, 1 µM [2] | fraction unbound at 6 h, 1 µM [3] | fraction unbound at 6 h, 1 µM [4] | fraction unbound at 6 h, 1 µM [5] | fraction unbound at 6 h, 1 µM [6] | fraction unbound at 6 h, 1 µM [7]
1 | O=C1CCc2ccc(OCCCCN3CCN(c4cccc(Cl)c4Cl)CC3)cc2N1 [ARIPIPRAZOLE] | 0.001 | 0.001 | 0.001 | 0.002 | 0.001 | 0.001 | 0.001
2 | CN(C)CCCC1(c2ccc(F)cc2)OCc2cc(C#N)ccc21 (centres undefined) [CITALOPRAM] | 0.03 | 0.057 | 0.06 | 0.047 | 0.05 | 0.038 | 0.061
3 | NC1CCN(c2c(F)cc3c(=O)c(C(=O)O)cn(C4CC4)c3c2Cl)C1 (centres undefined) [CLINAFLOXACIN] | 0.435 | 0.398 | 0.377 | 0.157 | 0.148 | 0.167 | 0.139
4 | O=c1n(CCCN2CCN(c3cccc(Cl)c3)CC2)nc2ccccn12 [TRAZODONE] | 0.062 | 0.066 | 0.086 | 0.077 | 0.085 | 0.059 | 0.082
5 | CO[C@H]1/C=C/O[C@@]2(C)Oc3c(C)c(O)c4c(O)c(c(/C=N/N5CCN(C)CC5)c(O)c4c3C2=O)NC(=O)/C(C)=C\C=C\[C@H](C)[C@H](O)[C@@H](C)[C@@H](O)[C@@H](C)[C@H](OC(C)=O)[C@@H]1C [RIFAMPIN] | 0.068 | 0.259 | 0.121 | 0.119 | 0.121 | 0.118 | 0.162
6 | O=C(O[C@H]1CN2CCC1CC2)N1CCc2ccccc2[C@@H]1c1ccccc1 [SOLIFENACIN] | 0.015 | 0.018 | 0.016 | 0.017 | 0.019 | 0.014 | 0.016
7 | O=C1NC(=O)C(c2ccccc2)(c2ccccc2)N1 [PHENYTOIN] | 0.134 | 0.259 | 0.088 | 0.095 | 0.1 | 0.082 | 0.114
